Test results: article PMC6290913 (Journal of medicinal chemistry, 2018)

What was measured:
[1] = system: AsPC-1 human pancreatic cancer cells + human pancreatic stellate cells; experiment: Orthotopic xenograft mouse model of pancreatic cancer; conditions: for liver metastases: 18 or 26 10 mg/kg ip daily for 28 days, compared to gemcitabine
85 serine hydrolases = conditions: 33.3 μM to 10 nM; semiquantitative
[2] = target: Mouse uPA (active mouse urokinase, HMW) (Mus musculus, UniProt P06869)
[3] = target: low molecular weight human uPA (Homo sapiens, UniProt P00749); experiment: Fluorometric uPA activity assay; type: biochemical; conditions: relative to HMA 5
uPA = uPA (Homo sapiens, UniProt P00749); experiment: EnPlex activity-based protein profiling, uPA; conditions: 33.3 μM to 10 nM; semiquantitative
[4] = target: human ENaCs (α, β, and γ subunits) (Homo sapiens, UniProt P37088+P51168+P51170); experiment: ENaC inhibition assay; type: cell-based; conditions: 10 μM compound; transfected HEK-293 cells
Trypsin = experiment: Chromogenic TLSP activity assay, trypsin; type: biochemical; conditions: read-out: Trypsin IC50; chromogenic enzyme inhibition assay

Mouse uPA (active mouse urokinase, HMW), sequence (P06869 180-433 limits assumed): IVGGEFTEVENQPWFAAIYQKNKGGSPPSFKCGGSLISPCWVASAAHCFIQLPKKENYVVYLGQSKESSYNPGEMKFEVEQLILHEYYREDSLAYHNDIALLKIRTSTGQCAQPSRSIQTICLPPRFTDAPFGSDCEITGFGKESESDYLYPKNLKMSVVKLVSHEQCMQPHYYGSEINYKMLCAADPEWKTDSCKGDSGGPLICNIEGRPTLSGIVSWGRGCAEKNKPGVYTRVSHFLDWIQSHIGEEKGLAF
Mouse uPA (active mouse urokinase, HMW), sequence (P06869 21-178 partner limits assumed): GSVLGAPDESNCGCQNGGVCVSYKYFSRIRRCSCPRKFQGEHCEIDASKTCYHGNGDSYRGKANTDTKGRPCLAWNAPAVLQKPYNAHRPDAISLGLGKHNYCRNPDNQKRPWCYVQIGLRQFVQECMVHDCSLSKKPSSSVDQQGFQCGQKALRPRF
human ENaCs (α, β, and γ subunits), sequence (P51170 whole entry): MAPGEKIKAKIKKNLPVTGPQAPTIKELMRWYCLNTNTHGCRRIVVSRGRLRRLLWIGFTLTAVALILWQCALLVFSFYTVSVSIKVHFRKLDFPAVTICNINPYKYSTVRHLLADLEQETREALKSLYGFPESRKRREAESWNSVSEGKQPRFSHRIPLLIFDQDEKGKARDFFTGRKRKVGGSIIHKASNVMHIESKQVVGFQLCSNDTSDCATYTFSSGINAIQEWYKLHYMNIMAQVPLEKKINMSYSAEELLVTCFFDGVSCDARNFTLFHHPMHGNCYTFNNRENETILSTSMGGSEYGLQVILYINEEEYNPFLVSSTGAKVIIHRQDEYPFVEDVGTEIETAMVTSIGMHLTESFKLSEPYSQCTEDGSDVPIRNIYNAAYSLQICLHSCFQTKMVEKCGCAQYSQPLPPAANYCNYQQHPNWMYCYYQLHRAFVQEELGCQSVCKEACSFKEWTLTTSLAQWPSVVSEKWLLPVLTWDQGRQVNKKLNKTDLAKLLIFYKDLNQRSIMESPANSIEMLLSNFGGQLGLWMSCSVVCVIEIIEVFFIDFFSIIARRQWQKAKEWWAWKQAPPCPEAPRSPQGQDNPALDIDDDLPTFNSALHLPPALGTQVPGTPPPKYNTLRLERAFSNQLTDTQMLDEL
human ENaCs (α, β, and γ subunits), sequence (P37088 whole entry): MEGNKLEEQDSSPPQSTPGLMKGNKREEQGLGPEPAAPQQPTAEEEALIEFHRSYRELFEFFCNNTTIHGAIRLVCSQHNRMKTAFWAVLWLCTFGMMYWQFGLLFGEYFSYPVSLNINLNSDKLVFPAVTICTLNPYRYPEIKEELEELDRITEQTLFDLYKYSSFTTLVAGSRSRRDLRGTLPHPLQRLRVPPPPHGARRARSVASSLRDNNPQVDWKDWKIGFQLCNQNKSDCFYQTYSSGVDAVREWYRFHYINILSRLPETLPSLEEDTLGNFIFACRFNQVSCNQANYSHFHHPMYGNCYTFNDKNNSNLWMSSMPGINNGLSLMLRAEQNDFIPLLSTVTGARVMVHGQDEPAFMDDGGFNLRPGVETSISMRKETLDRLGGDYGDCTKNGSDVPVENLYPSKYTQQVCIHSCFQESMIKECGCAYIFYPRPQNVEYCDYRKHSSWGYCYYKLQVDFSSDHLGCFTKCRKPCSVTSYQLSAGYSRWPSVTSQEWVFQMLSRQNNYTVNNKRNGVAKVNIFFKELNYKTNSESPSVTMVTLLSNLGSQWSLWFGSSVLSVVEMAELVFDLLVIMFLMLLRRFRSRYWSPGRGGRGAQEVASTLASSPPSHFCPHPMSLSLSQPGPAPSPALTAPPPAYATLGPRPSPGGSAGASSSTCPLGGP
human ENaCs (α, β, and γ subunits), sequence (P51168 whole entry): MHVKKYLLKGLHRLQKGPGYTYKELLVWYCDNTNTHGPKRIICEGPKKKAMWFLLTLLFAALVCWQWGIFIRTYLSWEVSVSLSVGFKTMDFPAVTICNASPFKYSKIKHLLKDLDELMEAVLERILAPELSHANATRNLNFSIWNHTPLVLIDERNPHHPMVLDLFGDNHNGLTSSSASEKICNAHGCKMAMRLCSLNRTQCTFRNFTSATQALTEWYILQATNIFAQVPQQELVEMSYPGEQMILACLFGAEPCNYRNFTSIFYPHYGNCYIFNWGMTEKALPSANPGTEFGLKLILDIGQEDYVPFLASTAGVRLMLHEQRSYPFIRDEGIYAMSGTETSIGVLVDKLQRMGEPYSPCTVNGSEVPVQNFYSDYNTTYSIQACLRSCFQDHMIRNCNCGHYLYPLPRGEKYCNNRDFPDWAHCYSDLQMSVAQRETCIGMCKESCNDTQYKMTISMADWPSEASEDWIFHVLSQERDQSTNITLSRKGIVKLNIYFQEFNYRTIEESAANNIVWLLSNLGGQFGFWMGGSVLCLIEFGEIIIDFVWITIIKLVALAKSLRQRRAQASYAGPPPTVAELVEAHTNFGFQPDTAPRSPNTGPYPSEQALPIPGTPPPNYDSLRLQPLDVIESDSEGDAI

SMILES	serine hydrolases inhibited in EnPlex screen (85 serine hydrolases)	decrease in affinity for mouse uPA versus human uPA [2]	increase in uPA potency relative to HMA [3]	further results
COc1ncc(-c2nc(C(=O)NC(=N)N)c(N)nc2N2CCCCCC2)cn1 [Compound 26, 3-Amino-5-(azepan-1-yl)-N-carbamimidoyl-6-(2-methoxypyrimidin-5-yl)pyrazine-2-carboxamide]	slight activity against C1s, plasma kallikrein, plasmin, prolylcarboxy peptidase, trypsin, and transmembrane protease serine 11D (TMPRSS11d)	10- to 30 fold		liver metastases [1]: no macroscopic metastatic lesions observed
N=C(N)NC(=O)c1nc(-c2cncc3ccccc23)c(N2CCCCCC2)nc1N [Compound 13, 3-Amino-5-(azepan-1-yl)-N-carbamimidoyl-6-(isoquinolin-4-yl)pyrazine-2-carboxamide]				decrease in uPA potency relative to HMA [3]: ~3 fold
N=C(N)NC(=O)c1nc(Cl)c(N2CCCCCC2)nc1N [Compound 5, 5-N,N-(hexamethylene)amiloride, reference compound]	activity against the highly homologous S28 protease family members dipeptidyl peptidase 2 (DPP7) and prolylcarboxypeptidase (PRCP)	~7 fold		inhibitory activity against uPA in EnPlex screen (uPA): not observed; inhibition of ENaC [4]: greatly reduced activity; IC50 (Trypsin): > 10 µM
N=C(N)NC(=O)c1nc(-c2cncnc2)c(N2CCCCCC2)nc1N [Compound 25, 3-Amino-5-(azepan-1-yl)-N-carbamimidoyl-6-(pyrimidin-5-yl)pyrazine-2-carboxamide]	slight inhibition of trypsin being the only off-target TLSP activity observed		~ 12.6 fold	
N=C(N)NC(=O)c1nc(-c2ccccc2)c(N2CCCCCC2)nc1N [Compound 9]				decrease in uPA potency relative to HMA [3]: ~ 3.7 fold
Cn1cc(-c2nc(C(=O)NC(=N)N)c(N)nc2N2CCCCCC2)cn1 [Compound 14, 3-Amino-5-(azepan-1-yl)-N-carbamimidoyl-6-(1-methyl-1H-pyrazol-4-yl)pyrazine-2-carboxamide]			~ 2.7 fold	
N=C(N)NC(=O)c1nc(-c2cc3ccccc3o2)c(N2CCCCCC2)nc1N [Compound 18, 3-Amino-5-(azepan-1-yl)-6-(benzofuran-2-yl)-N-carbamimidoylpyrazine-2-carboxamide]	inhibiting plasma kallikrein (KLKb1) and trypsin	10- to 30 fold		liver metastases [1]: reduced; IC50 (Trypsin): > 10 µM
Nc1ccn([C@@H]2O[C@H](CO)[C@@H](O)C2(F)F)c(=O)n1 [gemcitabine, reference compound]				effect on end point primary tumor volume ([1]; gemcitabine 75 mg/kg po twice weekly, 18 or 26 10 mg/kg ip daily, 28 days): only modest inhibitory effects
N=C(N)NC(=O)c1nc(-c2ccco2)c(N2CCCCCC2)nc1N [Compound 22, 3-Amino-5-(azepan-1-yl)-N-carbamimidoyl-6-(furan-2-yl)-pyrazine-2-carboxamide]			~ 8.7 fold	
